# Test results as given in ChEMBL document CHEMBL1201862, “PubChem BioAssay data set” (2004).
# Active and inactive are the calls of the source.
# Assays:
# [1] = HIV-1 Vif–A3G interaction blockers – biochemical, TR-FRET, GST-Vif 1-94, biotin-A3G peptide, dose response retest, primary screen (AID 1117319); assay type: functional;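 note: TR-FRET signal of purified GST-Vif binding a biotinylated A3G peptide; inhibitors lower the FRET signal by blocking Vif and A3G binding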
# [2] = biological target: T1, RNA-editing ligase 1, mitochondrial (Trypanosoma brucei brucei, UniProt P86926); experiment: inhibition of trypanosome RNA editing ligase – biochemical, fluorescence, Trypanosoma brucei, dose response (AID 1117295); assay type: functional
# T1 sequence (P86926 whole entry): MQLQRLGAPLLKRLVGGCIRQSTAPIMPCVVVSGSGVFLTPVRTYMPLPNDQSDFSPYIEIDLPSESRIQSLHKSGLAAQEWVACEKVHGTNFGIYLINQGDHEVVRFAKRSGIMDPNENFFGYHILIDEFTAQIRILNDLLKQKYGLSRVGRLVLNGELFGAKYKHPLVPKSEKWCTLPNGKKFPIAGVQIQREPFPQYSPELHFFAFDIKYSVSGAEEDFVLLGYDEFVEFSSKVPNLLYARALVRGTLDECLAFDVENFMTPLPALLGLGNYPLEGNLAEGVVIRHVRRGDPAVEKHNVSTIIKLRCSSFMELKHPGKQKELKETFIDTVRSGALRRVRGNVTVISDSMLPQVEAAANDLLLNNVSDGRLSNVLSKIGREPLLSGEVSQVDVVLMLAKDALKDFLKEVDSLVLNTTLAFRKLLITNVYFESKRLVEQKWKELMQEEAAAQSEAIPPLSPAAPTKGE
# Protein RecA = biological target: T2, Protein RecA (Mycobacterium tuberculosis, UniProt P9WHJ3); experiment: Fluorescence Cell-Free Homogeneous Dose Retest to Identify Inhibitors of RecA-Intein Splicing Activity. [Related pubchem assays (depositor defined):AID2097, AID2223, AID489010, AID492950]; assay type: functional
# T2 sequence (P9WHJ3 whole entry): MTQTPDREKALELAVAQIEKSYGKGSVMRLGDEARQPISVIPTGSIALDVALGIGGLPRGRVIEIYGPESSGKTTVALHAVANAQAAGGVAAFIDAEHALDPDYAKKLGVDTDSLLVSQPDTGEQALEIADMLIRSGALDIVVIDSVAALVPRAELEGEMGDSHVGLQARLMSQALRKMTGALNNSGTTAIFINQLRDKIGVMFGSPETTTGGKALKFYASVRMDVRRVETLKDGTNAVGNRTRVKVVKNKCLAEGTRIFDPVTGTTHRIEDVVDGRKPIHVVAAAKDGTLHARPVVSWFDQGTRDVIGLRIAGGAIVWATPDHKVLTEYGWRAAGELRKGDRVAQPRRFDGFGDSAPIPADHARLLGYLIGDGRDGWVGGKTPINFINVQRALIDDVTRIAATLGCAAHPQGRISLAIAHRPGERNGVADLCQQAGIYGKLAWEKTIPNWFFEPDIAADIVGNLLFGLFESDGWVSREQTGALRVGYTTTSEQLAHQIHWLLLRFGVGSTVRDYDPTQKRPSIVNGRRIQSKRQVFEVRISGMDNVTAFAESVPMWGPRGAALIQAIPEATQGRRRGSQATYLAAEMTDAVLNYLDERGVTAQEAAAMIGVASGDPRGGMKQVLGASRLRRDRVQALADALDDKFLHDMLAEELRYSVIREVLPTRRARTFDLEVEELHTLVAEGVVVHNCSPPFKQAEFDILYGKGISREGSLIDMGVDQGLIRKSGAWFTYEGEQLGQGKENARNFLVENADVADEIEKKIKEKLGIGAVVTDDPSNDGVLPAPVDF
# [3] = biological target: T3, Replicative DNA helicase DnaB (Mycobacterium tuberculosis, UniProt P9WMR3); experiment: DnaB intein splicing inhibitors, dose response, biochemical, cell-free fluorescence (AID 449749); assay type: functional
# T3 sequence (P9WMR3 whole entry): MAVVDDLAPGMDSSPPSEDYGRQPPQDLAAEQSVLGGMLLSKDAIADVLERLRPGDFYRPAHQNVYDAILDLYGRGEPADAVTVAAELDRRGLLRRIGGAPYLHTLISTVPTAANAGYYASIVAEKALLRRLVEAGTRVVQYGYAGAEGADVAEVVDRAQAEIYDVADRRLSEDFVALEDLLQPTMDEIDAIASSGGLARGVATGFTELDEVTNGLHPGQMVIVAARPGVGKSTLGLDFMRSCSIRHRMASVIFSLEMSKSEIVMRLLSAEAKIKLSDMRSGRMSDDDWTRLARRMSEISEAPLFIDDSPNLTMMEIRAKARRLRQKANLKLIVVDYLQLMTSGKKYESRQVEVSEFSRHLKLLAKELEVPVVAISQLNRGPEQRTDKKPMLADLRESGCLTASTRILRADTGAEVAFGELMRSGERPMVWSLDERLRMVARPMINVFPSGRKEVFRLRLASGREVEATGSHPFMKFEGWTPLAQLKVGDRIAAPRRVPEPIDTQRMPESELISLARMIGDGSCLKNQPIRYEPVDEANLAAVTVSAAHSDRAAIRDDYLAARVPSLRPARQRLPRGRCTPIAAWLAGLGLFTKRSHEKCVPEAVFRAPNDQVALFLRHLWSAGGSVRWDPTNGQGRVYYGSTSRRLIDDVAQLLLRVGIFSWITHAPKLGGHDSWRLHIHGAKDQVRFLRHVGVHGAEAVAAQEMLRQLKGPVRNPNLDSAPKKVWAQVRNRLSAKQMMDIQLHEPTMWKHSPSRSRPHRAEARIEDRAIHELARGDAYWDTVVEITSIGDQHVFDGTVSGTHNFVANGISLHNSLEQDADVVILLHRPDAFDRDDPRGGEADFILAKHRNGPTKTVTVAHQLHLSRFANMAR
# Vero [4] = experiment: mammalian cell viability reduction – secondary assay, cytotoxicity control for West Nile virus antiviral project, dose response (AID 1650); assay type: functional; conditions: Chlorocebus sabaeus
# [5] = biological target: Protein-tyrosine kinase 2-beta (Homo sapiens, UniProt Q14289);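 note: potency of inhibitors of PYK2 kinase phosphorylation of poly-GT substrate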
# Sequence of Protein-tyrosine kinase 2-beta (Q14289 whole entry): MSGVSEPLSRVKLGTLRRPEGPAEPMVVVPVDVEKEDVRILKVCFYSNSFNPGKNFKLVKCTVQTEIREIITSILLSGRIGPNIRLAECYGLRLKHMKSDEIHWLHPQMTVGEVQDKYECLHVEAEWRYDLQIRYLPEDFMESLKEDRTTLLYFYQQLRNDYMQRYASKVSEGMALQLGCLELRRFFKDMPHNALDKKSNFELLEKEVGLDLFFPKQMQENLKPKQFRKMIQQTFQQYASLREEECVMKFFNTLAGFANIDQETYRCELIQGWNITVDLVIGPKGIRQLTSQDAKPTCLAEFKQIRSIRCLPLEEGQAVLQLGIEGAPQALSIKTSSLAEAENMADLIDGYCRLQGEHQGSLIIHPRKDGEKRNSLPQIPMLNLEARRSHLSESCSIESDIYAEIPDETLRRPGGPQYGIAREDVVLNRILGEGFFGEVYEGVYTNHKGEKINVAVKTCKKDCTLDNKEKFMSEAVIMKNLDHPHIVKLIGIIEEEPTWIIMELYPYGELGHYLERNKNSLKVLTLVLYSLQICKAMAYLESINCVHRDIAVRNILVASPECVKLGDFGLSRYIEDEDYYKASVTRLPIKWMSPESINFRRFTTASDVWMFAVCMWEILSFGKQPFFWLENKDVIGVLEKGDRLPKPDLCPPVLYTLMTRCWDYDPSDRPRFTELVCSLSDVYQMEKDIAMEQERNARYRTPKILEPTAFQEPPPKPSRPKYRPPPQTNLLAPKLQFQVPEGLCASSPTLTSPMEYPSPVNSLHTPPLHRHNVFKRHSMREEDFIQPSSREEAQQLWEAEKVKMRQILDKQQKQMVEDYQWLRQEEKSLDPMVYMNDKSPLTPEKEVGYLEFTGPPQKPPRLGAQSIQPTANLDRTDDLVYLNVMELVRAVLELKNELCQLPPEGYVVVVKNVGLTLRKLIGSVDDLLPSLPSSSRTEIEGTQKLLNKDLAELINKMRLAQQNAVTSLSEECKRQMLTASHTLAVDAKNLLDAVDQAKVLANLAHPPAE
# [6] = Luminescence Cell-Based Dose Retest to Confirm Inhibitors of Cancer Stem Cells. [Related pubchem assays (depositor defined):AID2717, AID2721]; assay type: functional; conditions: Homo sapiens
# Cytochrome P450 3A4 = Cytochrome P450 3A4 (Homo sapiens, UniProt P08684);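 note: CYP3A4 tested as one member of a cytochrome P450 panel screen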
# Sequence of Cytochrome P450 3A4 (P08684 whole entry): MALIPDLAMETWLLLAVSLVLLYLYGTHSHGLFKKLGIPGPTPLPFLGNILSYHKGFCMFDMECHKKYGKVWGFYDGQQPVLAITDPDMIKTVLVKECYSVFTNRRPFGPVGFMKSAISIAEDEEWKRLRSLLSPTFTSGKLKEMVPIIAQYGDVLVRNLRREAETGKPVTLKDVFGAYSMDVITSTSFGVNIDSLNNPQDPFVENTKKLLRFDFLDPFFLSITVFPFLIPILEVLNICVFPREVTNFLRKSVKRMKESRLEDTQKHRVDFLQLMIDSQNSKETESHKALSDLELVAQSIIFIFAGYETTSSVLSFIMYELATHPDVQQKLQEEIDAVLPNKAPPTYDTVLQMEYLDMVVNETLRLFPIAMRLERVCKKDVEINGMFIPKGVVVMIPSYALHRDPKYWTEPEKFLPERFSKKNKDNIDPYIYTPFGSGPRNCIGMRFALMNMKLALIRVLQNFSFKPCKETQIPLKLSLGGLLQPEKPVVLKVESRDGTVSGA
# Cytochrome P450 2C19 = Cytochrome P450 2C19 (Homo sapiens, UniProt P33261); experiment: Cytochrome panel assay with activity outcomes. Panel member name: p450-cyp2c19 Compounds with AC50 equal or less than 10 uM are considered active; assay type: functional; conditions: read-out: AC50
# Sequence of Cytochrome P450 2C19 (P33261 whole entry): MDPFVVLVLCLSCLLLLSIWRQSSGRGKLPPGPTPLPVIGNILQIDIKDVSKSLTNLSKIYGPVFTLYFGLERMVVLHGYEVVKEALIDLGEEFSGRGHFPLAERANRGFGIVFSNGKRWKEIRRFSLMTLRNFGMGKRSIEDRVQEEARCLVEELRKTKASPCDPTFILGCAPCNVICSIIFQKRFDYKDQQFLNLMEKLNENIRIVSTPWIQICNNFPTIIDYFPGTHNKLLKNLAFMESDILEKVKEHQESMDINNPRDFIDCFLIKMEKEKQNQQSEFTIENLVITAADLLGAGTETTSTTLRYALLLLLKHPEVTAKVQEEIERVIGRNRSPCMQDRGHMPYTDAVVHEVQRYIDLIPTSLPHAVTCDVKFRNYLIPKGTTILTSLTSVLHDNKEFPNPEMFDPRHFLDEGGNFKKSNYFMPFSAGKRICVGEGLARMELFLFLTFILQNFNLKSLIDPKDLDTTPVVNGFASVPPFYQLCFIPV
# Large T antigen = Large T antigen (Simian virus 40, UniProt P03070); assay type: functional, Betapolyomavirus macacae;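 note: Confirmatory-stage PubChem screen for compounds that inhibit SV40 T antigen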
# Sequence of Large T antigen (P03070 whole entry): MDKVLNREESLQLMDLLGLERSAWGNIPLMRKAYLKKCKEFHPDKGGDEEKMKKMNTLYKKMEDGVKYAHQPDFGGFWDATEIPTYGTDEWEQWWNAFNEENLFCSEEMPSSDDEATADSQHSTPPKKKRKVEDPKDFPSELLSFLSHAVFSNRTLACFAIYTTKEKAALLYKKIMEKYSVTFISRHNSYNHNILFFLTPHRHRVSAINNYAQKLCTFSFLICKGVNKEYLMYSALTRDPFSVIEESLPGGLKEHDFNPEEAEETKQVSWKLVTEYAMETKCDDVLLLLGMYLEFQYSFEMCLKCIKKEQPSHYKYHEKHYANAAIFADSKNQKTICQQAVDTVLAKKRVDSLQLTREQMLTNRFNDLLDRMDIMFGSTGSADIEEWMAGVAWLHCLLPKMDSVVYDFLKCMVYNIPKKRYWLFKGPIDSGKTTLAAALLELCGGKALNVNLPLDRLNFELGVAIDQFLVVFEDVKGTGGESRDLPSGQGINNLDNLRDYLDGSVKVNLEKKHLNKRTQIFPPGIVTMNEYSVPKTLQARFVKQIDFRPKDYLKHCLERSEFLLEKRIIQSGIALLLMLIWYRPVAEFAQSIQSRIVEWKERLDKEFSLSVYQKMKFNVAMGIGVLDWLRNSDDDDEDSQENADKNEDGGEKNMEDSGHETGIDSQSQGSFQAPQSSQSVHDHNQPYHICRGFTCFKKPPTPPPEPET
# [7] = biological target: Glucose-6-phosphate 1-dehydrogenase (Homo sapiens, UniProt P11413); experiment: inhibition of Homo sapiens G6PD, dose series – biochemical, fluorescence, selectivity assay for P. falciparum G6PD inhibitor project, dose response (AID 504792); assay type: functional
# Sequence of Glucose-6-phosphate 1-dehydrogenase (P11413 whole entry): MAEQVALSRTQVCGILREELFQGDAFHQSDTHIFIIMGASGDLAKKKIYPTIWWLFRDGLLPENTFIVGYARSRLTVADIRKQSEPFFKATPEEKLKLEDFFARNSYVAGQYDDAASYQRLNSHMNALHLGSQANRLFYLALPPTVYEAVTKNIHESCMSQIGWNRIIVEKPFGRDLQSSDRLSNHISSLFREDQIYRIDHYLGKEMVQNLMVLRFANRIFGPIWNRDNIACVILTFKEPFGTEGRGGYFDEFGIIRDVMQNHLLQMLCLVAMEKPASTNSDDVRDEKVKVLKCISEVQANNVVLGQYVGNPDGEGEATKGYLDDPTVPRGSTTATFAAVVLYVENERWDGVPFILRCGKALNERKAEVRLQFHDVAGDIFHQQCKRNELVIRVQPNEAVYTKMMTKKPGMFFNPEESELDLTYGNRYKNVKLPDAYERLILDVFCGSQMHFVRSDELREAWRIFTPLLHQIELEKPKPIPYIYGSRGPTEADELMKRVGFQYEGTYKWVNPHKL
# Caspase-6 = biological target: T4, Caspase-6 (Homo sapiens, UniProt P55212); experiment: inhibition of CASP6 peptide cleavage – biochemical, VEID-R110 fluorescence, cherry-pick, dose response (AID 720632)
# T4 sequence (P55212 whole entry): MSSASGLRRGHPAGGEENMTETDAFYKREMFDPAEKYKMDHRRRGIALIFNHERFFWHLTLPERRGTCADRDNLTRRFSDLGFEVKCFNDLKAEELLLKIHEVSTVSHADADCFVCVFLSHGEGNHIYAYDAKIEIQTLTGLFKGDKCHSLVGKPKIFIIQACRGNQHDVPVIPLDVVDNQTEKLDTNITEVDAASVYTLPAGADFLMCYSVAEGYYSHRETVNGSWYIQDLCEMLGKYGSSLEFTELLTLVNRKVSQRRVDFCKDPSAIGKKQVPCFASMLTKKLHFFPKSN
# Caspase-9 = biological target: T5, Caspase-9 (Homo sapiens, UniProt P55211); experiment: inhibitors of purified CASP9 protease – biochemical, fluorescence, plate reader, cherry-picked samples, selectivity assay for caspase-6 inhibitor project, dose response (AID 743293)
# T5 sequence (P55211 whole entry): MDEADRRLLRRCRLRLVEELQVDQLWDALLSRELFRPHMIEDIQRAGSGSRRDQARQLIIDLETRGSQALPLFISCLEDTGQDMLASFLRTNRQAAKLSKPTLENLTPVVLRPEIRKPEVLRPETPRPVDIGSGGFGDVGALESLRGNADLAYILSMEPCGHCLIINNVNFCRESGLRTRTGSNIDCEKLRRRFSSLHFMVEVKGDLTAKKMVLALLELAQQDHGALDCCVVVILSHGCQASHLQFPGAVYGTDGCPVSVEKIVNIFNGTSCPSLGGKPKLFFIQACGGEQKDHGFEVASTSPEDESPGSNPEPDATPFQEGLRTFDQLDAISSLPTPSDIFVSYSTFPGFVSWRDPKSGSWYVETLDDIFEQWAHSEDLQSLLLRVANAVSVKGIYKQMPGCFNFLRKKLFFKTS
# Caspase-7 = biological target: T6, Caspase-7 (Homo sapiens, UniProt P55210); experiment: caspase-7 enzyme inhibition, selectivity check – biochemical, DEVD-R110 fluorescence, cherry-pick, selectivity assay for caspase-6 inhibitor project, dose response (AID 743295); assay type: functional
# T6 sequence (P55210 whole entry): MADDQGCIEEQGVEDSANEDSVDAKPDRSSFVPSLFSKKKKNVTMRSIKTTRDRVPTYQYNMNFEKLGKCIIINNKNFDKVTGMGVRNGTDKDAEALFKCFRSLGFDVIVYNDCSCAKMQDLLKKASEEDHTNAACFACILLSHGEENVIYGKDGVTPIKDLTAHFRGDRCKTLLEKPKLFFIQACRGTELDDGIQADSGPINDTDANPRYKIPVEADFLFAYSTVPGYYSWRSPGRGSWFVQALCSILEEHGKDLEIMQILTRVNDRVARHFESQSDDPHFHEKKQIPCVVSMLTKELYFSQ
# Cytochrome P450 1A2 = biological target: T7, Cytochrome P450 1A2 (Homo sapiens, UniProt P05177);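 note: PubChem cytochrome P450 panel assay, CYP1A2 panel member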
# T7 sequence (P05177 whole entry): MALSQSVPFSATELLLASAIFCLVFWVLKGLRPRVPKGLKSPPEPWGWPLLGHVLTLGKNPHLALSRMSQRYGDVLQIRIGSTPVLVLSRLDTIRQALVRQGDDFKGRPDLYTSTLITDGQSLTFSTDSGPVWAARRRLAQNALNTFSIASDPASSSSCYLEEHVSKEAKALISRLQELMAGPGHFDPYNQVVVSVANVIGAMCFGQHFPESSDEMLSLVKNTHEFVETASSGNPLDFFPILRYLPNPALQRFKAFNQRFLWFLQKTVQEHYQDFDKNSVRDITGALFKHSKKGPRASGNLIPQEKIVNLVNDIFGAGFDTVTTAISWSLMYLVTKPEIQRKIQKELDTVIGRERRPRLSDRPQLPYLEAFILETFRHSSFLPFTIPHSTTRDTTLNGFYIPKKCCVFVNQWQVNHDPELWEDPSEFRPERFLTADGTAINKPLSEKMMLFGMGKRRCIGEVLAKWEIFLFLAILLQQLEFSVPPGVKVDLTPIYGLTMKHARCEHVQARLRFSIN
# BJ [8] = experiment: growth inhibition of engineered Ras-driven BJ cells – cell-based, alamar blue fluorescence, cherrypicked samples, dose response (AID 2631); assay type: functional; conditions: Homo sapiens;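 note: confirmatory dose-response assay in RAS-dependent BJ fibroblasts engineered with TERT, LT and ST, with cytotoxicity read by fluorescence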
# [9] = Luminescence-based counterscreen assay for KLF5 inhibitors: dose response cell-based high throughput screening assay to identify cytotoxic compounds using the IEC-6 intestinal epithelial cell line. [Related pubchem assays: 1700 (Primary screen.), 1834 (Confirmation screen.), 1858 (Summary AID.), 1905 (Counterscreen.)]; assay type: functional
# BJ [10] = experiment: BJ-TERT fibroblast viability loss – cell-based, RAS-independent, luminescence, dose response (AID 1933); assay type: functional; conditions: Homo sapiens
# BJ [11] = experiment: BJ-TERT-LT-ST fibroblast viability loss – cell-based, RAS-independent, luminescence, dose response (AID 1935); assay type: functional; conditions: Homo sapiens;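 note: BJ fibroblasts immortalized with TERT plus LT and ST oncogenes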
# [12] = DRD fibroblast viability loss – cell-based, non-viral oncogenic, luminescence, dose response (AID 1934); assay type: functional; conditions: Homo sapiens
# BJ [13] = experiment: cells; assay type: functional, cell-based; conditions: Homo sapiens
# Vero [14] = experiment: cells; assay type: functional; conditions: Chlorocebus sabaeus
# [15] = HEK-293T viability loss after treatment – luminescence, T-cell screen hits, cytotoxicity control for TCR NF-kB inhibitor project, dose response (AID 489026); assay type: functional, cell-based;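 note: cells exposed to compound about 14 hours before the viability readout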
# [16] = general cell-killing toxicity readout – plate reader, dry powder samples, cytotoxicity control for PAX8 inhibitor project, dose response (AID 743021); assay type: functional, cell-based
# Paired box protein Pax-8 = Paired box protein Pax-8 (Homo sapiens, UniProt Q06710); experiment: PAX8 transcriptional activity inhibition in RMG-I – RMG-I cells, luciferase, cherry-pick, dose response (AID 687027); assay type: functional, cell-based;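 note: luciferase reporter driven by Pax8 target thyroperoxidase promoter measured by SteadyGlo luminescence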
# Sequence of Paired box protein Pax-8 (Q06710 whole entry): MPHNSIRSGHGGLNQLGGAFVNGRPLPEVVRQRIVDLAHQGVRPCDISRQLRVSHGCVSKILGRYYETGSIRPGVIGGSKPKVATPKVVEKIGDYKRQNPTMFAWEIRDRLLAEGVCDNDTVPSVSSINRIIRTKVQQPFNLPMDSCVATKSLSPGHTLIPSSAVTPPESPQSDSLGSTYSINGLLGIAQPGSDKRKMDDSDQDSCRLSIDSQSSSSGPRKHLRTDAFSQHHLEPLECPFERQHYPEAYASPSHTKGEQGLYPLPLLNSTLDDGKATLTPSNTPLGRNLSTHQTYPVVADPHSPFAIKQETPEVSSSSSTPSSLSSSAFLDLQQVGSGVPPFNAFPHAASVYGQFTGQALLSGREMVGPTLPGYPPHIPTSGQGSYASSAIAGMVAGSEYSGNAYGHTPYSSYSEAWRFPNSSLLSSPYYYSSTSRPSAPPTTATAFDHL
compound,measurement,setting,value
O=C1CCCCC1Oc1ccc2ccc(=O)oc2c1 (stereo unspecified),IC50,[1],> 100 µM (active)
CCC(=O)c1ccccc1OCCCN1CCC(Cc2ccccc2)CC1,IC50,[2],> 96.6 µM (inactive)
C[C@@H]1CC=C[C@H]2[C@H]1C(=O)N(Cc1ccccc1)[C@H]2c1ccc(F)c(Br)c1,EC50,Protein RecA,23 µM (active)
same,AC50,[3],5.04 µM (active)
same,CC50,Vero [4],24.1 µM (active)
COc1ccc2nc(C)cc(SCC(=O)N/N=C/c3cccc4ccccc34)c2c1,IC50,[5],2.57 µM (active)
same,AC50,[6],1.11 µM (active)
COC(=O)C(Cc1c[nH]c2ccccc12)NC(=O)C(C)C (stereo unspecified),AC50,Cytochrome P450 3A4,31.6 µM (inconclusive)
same,IC50,[1],> 100 µM (active)
same,AC50,Cytochrome P450 2C19,22.4 µM (inconclusive)
Nc1c(O)cccc1C(=O)O,IC50,Large T antigen,20.1 µM (active)
same,EC50,Protein RecA,5.43 µM (active)
same,IC50,[7],24 µM (inactive)
same,AC50,Caspase-6,1.59 µM (active)
same,AC50,Caspase-9,> 70 µM (inactive)
same,AC50,[3],> 380 µM (inactive)
same,AC50,Caspase-7,6.14 µM (active)
CC(C)(C)C(=O)NC(=C(Cl)Cl)P(=O)(O)O,AC50,Cytochrome P450 1A2,0.1 µM (inconclusive)
same,IC50,[5],9.26 µM (active)
C[C@]12CCC3C(CCC4=CC(O)CC[C@@]43/C=N/O)C1(O)CCC2C1=CC(=O)OC1 (stereo partly specified),EC50,BJ [8],0.391 µM (active)
same,IC50,[9],> 39.8 µM (not active)
same,EC50,BJ [10],1.9 µM (active)
same,EC50,BJ [11],2.36 µM (inconclusive)
same,EC50,[12],2.33 µM (active)
same,EC50,BJ [13],2.56 µM (active)
same,CC50,Vero [14],1.34 µM (active)
same,IC50,[15],> 80 µM (inactive)
same,AC50,[16],50.2 µM (active)
same,CC50,Vero [4],0.79 µM (active)
same,AC50,Paired box protein Pax-8,2.22 µM (active)
O=C(CSc1nnc(-c2cccnc2)n1Cc1ccco1)c1ccc(Br)cc1,IC50,[1],> 100 µM (active)
